Broadly, the inhibition is the drop in the measured response relative to a control, in per cent. For orientation: IC50 means the concentration that inhibits the measured activity by half. The pKa is the pH at which an ionisable group is half protonated. Higher therefore signals a group that holds its proton tightly. As a reminder, the ED50 is the dose that gives a 50% effect, or the effect in half of the subjects. A high value points to weaker potency.

Consider 28 molecules from ChEMBL document CHEMBL1125575, “2-[(2-pyridylmethyl)sulfinyl]-1H-thieno[3,4-d]imidazoles. A novel class of gastric H+/K(+)-ATPase inhibitors” (J Med Chem, 1992).

Data set [1] deals with Potassium-transporting ATPase alpha chain 1 (Sus scrofa) (UniProt P19156). The experiment in a line: Inhibition of H+/K+ ATPase from pig stomach. Particulars: concentration not given here. The format is tissue-based.
The species entered for data set [2] is Oryctolagus cuniculus. The experiment in a line: cells. The format is functional, organism-based, Stomach.
Description: In vitro inhibition of 14C amino-pyrine uptake was determined in isolated rabbit gastric glands after dbcAMP stimulation
Data set [3] is filed under the species Rattus norvegicus. The data set can be described thus: animal or person. The following applies: Stomach, iv, read-out: Inhibition.
The species entered for data set [4] is Canis familiaris. The data set can be described thus: animal or person. Particulars: Canis lupus familiaris, Stomach, intraduodenal, read-out: Inhibition.
A short description of data set [5]: animal or person. The following applies: Canis lupus familiaris, Stomach, iv, read-out: Inhibition.
In data set [6] the target is Potassium-transporting ATPase alpha chain 1 (Sus scrofa, UniProt P19156).
Description: In vitro inhibitory concentration against H+/K+ ATPase from pig stomach by probit analysis
Data set [7] can be described thus: physchem.
Description: pKa value of the compound
The species named for data set [8] is Canis familiaris. The experiment in a line: animal or person. The following applies: Canis lupus familiaris, iv.
Data set [9] concerns Canis familiaris. The data set can be described thus: In vivo inhibition of gastric acid secretion was calculated in heidenhain-pouch dog after iv administration of the drug at a dose of 0.3 mg/kg. The following applies: Canis lupus familiaris, Stomach. The format is functional.
Data set [10] is filed under the species Oryctolagus cuniculus. The data set can be described thus: In vitro inhibition of 14C amino pyrine uptake was determined in isolated rabbit gastric glands after dbcAMP stimulation. The format is functional. The following applies: Stomach.

Sequence of Potassium-transporting ATPase alpha chain 1 (P19156 whole entry): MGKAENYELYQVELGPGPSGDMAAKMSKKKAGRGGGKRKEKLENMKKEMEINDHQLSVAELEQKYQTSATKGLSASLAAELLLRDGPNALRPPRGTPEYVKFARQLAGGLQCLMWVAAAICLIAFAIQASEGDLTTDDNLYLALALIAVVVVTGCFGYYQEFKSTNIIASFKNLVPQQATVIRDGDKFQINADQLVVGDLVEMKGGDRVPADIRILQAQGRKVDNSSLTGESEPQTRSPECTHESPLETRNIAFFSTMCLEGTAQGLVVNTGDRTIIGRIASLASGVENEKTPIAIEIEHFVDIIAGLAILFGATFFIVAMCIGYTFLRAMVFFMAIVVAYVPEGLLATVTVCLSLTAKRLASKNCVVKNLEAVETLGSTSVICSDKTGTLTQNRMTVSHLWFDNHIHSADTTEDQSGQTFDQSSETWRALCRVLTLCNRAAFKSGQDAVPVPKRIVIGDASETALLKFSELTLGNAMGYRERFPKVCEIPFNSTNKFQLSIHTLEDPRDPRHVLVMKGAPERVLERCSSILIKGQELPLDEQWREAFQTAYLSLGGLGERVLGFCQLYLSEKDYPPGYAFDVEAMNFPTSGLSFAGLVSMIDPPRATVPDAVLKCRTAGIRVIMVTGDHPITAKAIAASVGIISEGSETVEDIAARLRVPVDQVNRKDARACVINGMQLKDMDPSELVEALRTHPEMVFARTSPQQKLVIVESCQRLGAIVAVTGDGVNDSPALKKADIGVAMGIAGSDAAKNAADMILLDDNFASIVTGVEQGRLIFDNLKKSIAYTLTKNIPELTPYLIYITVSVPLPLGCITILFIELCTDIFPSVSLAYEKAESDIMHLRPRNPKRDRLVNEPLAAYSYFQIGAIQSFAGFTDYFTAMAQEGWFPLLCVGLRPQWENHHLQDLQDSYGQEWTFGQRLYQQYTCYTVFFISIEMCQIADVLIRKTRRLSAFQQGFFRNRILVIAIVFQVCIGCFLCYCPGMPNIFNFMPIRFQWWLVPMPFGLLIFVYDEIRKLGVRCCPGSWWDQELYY
Sequence of Potassium-transporting ATPase alpha chain 1 (Sus scrofa) (P19156 whole entry): as above

On to `COc1c(Br)cnc(C[S+]([O-])c2nc3cscc3[nH]2)c1C` (stereo unspecified), for which the inhibition in [1] was -5%. For the same molecule, 81000 nM corresponded to half-maximal inhibition in data set [2] (Stomach) (IC50). For the same molecule, in data set [3], the inhibition in vivo at 0.5 mg/kg turned out to be 37%.

For the molecule `Cc1cnc(C[S+]([O-])c2nc3cscc3[nH]2)cc1OCC(F)(F)F` (stereo unspecified), in data set [2] (Stomach), inhibition was half-maximal at 1000 nM (IC50). Further, in data set [4], the inhibition in vivo at 1 mg/kg worked out at 92%. In data set [5], the inhibition in vivo at 0.3 mg/kg turned out to be 83%. Besides, the inhibition in vivo at 0.5 mg/kg in data set [3] is 69%.

Molecule `COc1ccnc(C[S+]([O-])c2nc3cscc3[nH]2)c1OC(F)(F)C(F)F` (stereo unspecified) returned an IC50 in data set [2] (Stomach) of 3000 nM. In addition, the inhibition in vivo at 1 mg/kg in data set [4] amounted to 14%. Besides, in data set [5], the inhibition in vivo at 0.3 mg/kg worked out at 65%. Also, the inhibition in vivo at 0.5 mg/kg in data set [3] is 51%.

Regarding `COc1cc(C[S+]([O-])c2nc3cscc3[nH]2)ncc1Br` (stereo unspecified), the half-inhibitory concentration (IC50) in data set [2] (Stomach) worked out at 19000 nM. Besides, the inhibition in vivo at 1 mg/kg in data set [4] came to 53%. The inhibition in vivo at 0.3 mg/kg in data set [5] was 59%. Further, the inhibition in vivo at 0.5 mg/kg in [3] is 62%.

Consider `Cc1sc(C)c2[nH]c([S+]([O-])Cc3cc(OCC(F)(F)F)ccn3)nc12` (stereo unspecified), for which the IC50 turned out to be 3700 nM in data set [2] (Stomach) and 2000 nM in [6]. In addition, the inhibition in vivo at 0.3 mg/kg in data set [5] was determined as 54%.

In [2] (Stomach), `Cc1c(OCC(F)(F)C(F)(F)F)ccnc1C[S+]([O-])c1nc2cscc2[nH]1` (stereo unspecified) yielded an IC50 of 500 nM. Moreover, the inhibition in vivo at 1 mg/kg in data set [4] turned out to be 45%. The inhibition in vivo at 0.3 mg/kg in [5] is 64%. Besides, the inhibition in vivo at 0.5 mg/kg in data set [3] worked out at 72%.

`COc1ccnc(C[S+]([O-])c2nc3cscc3[nH]2)c1Br` (stereo unspecified) returned an IC50 in data set [2] (Stomach) of 2000 nM. In addition, in [7], the pKa was 3.52. Further, the inhibition in vivo at 1 mg/kg in [4] is -11%. Further, in data set [5], the inhibition in vivo at 0.3 mg/kg was found to be 73%. The inhibition in vivo at 0.5 mg/kg in [3] was 71%.

Molecule `Cc1ccc(C[S+]([O-])c2nc3cscc3[nH]2)nc1` (stereo unspecified) gave an IC50 in data set [2] (Stomach) of 9000 nM. This molecule also returned a pKa in data set [7] of 3.26. The 50% effective dose (ED50) in data set [8] came out at 0.11 mg/kg. For the same molecule, the inhibition in vivo at 0.3 mg/kg in data set [5] turned out to be 72%. In addition, the inhibition in vivo at 0.5 mg/kg in [3] worked out at 78%.

`[O-][S+](Cc1cc(OC(C(F)(F)F)C(F)(F)F)ccn1)c1nc2cscc2[nH]1` (stereo unspecified) yielded a half-maximal inhibitory concentration (IC50) in [2] (Stomach) of 195000 nM. Moreover, in [7], the pKa was determined as 3.5. Also, the inhibition in vivo at 0.5 mg/kg in data set [3] amounted to 39%.

Take `COc1c(OCC(F)(F)C(F)(F)C(F)(F)C(F)F)ccnc1C[S+]([O-])c1nc2cscc2[nH]1` (stereo unspecified): the IC50 turned out to be 1000 nM in data set [2] (Stomach) and 12000 nM in data set [6]. Also, the inhibition in vivo at 1 mg/kg in [4] was determined as 63%. Moreover, the inhibition in vivo at 0.5 mg/kg in data set [3] stood at 64%.

Regarding `Cc1c(OCC(F)(F)F)ccnc1C[S+]([O-])c1nc2cscc2[nH]1` (stereo unspecified), the IC50 in [2] (Stomach) came to 21000 nM. Also, in [9], the inhibition in vivo at 0.3 mg/kg was 57%. Also, the inhibition in vivo at 0.5 mg/kg in data set [3] worked out at 56%.

`[O-][S+](Cc1cc(OCc2ccc(C(F)(F)F)cc2)ccn1)c1nc2cscc2[nH]1` (stereo unspecified): the IC50 in data set [2] (Stomach) is 600 nM. Besides, the pKa in data set [7] amounted to 3.74. The inhibition in vivo at 1 mg/kg in data set [4] was 94%. The inhibition in vivo at 0.5 mg/kg in data set [3] came to 80%.

As for `COc1c(OCC(F)(F)C(F)(F)C(F)(F)F)ccnc1C[S+]([O-])c1nc2cscc2[nH]1` (stereo unspecified), the half-maximal inhibitory concentration (IC50) is 1100 nM in data set [2] and 7000 nM in data set [6]. Moreover, the inhibition in vivo at 1 mg/kg in data set [4] was 66%. Besides, in data set [3], the inhibition in vivo at 0.5 mg/kg worked out at 70%.

`[O-][S+](Cc1cc(Oc2ccc(F)cc2)ccn1)c1nc2cscc2[nH]1` (stereo unspecified) yielded an IC50 in data set [2] (Stomach) of 4000 nM. Also, in [4], the inhibition in vivo at 1 mg/kg is 97%. Moreover, the inhibition in vivo at 0.3 mg/kg in data set [5] was found to be 85%. The inhibition in vivo at 0.5 mg/kg in [3] is 84%.

With `COc1c(OCC(F)(F)C(F)F)ccnc1C[S+]([O-])c1nc2cscc2[nH]1` (stereo unspecified), the IC50 was 600 nM in data set [2] and 3000 nM in data set [6]. Moreover, the inhibition in vivo at 1 mg/kg in data set [4] stood at 47%. Further, the inhibition in vivo at 0.3 mg/kg in data set [5] amounted to 58%. Further, the inhibition in vivo at 0.5 mg/kg in data set [3] is 79%.

As for `COc1ccnc(C[S+]([O-])c2nc3cscc3[nH]2)c1` (stereo unspecified), the IC50 in data set [2] (Stomach) amounted to 19000 nM. The same molecule came in with a pKa in data set [7] of 4.16. Further, the inhibition in vivo at 0.3 mg/kg in data set [5] worked out at 84%. The inhibition in vivo at 0.5 mg/kg in data set [3] turned out to be 82%.

Regarding `[O-][S+](Cc1cc(OCC(F)(F)F)ccn1)c1nc2cscc2[nH]1` (stereo unspecified), the IC50 in data set [2] (Stomach) is 3000 nM. Further, in data set [7], the pKa came to 3.83. Also, the inhibition in vivo at 1 mg/kg in data set [4] stood at 73%. Further, in [5], the inhibition in vivo at 0.3 mg/kg came to 62%. Also, in data set [3], the inhibition in vivo at 0.5 mg/kg stood at 96%.

Consider `COc1cc(C[S+]([O-])c2nc3cscc3[nH]2)ncc1Cl` (stereo unspecified), for which the IC50 in data set [2] (Stomach) is 31000 nM. Further, in data set [7], the pKa came to 3.44. Moreover, the inhibition in vivo at 1 mg/kg in [4] was determined as 55%. Moreover, the inhibition in vivo at 0.3 mg/kg in data set [5] is 38%. Further, the inhibition in vivo at 0.5 mg/kg in [3] amounted to 58%.

With `[O-][S+](Cc1cc(OCC(F)(F)C(F)(F)C(F)(F)C(F)F)ccn1)c1nc2cscc2[nH]1` (stereo unspecified), the values for the IC50 in data set [2] (Stomach) and in data set [6] were 3000 nM and 2000 nM, respectively.

For the molecule `COc1c(Cl)cnc(C[S+]([O-])c2nc3cscc3[nH]2)c1C` (stereo unspecified), the inhibition in data set [1] was -5%. In addition, in [2] (Stomach), the IC50 stood at 230000 nM. The inhibition in vivo at 1 mg/kg in data set [4] amounted to 24%. In addition, the inhibition in vivo at 0.5 mg/kg in [3] amounted to 43%.

Take `COc1c(OCC(F)(F)F)ccnc1C[S+]([O-])c1nc2cscc2[nH]1` (stereo unspecified): the results for the IC50 in data set [2] (Stomach) and in [6] were 2500 nM and 4000 nM, respectively. This molecule displayed a pKa in [7] of 3.52. The same molecule displayed an ED50 in data set [8] of 0.08 mg/kg. The inhibition in vivo at 0.3 mg/kg in data set [5] was found to be 85%. Besides, the inhibition in vivo at 0.5 mg/kg in [3] turned out to be 64%.

For `CCOc1ccnc(C[S+]([O-])c2nc3cscc3[nH]2)c1` (stereo unspecified), in [2] (Stomach), the IC50 was found to be 3000 nM. Besides, the pKa in data set [7] amounted to 3.92.

For `COc1cccnc1C[S+]([O-])c1nc2cscc2[nH]1` (stereo unspecified), the IC50 in [10] was 290000 nM. Besides, the inhibition in vivo at 0.5 mg/kg in [3] was 59%.

In turn, `[O-][S+](Cc1cc(OCC(F)(F)C(F)F)ccn1)c1nc2cscc2[nH]1` (stereo unspecified) returned an IC50 in data set [2] (Stomach) of 2000 nM. In addition, the inhibition in vivo at 1 mg/kg in data set [4] was 91%. Moreover, the inhibition in vivo at 0.3 mg/kg in data set [5] was 66%. For the same molecule, the inhibition in vivo at 0.5 mg/kg in data set [3] came to 89%.

Consider `COc1c(OCc2ccc(F)cc2)ccnc1C[S+]([O-])c1nc2cscc2[nH]1` (stereo unspecified), for which, in data set [2] (Stomach), inhibition was half-maximal at 300 nM (IC50). In addition, the inhibition in vivo at 1 mg/kg in [4] was determined as 76%. Besides, the inhibition in vivo at 0.3 mg/kg in data set [5] was found to be 73%. Moreover, the inhibition in vivo at 0.5 mg/kg in [3] was 78%.

`[O-][S+](Cc1nccc(OCC(F)(F)F)c1OCC(F)(F)F)c1nc2cscc2[nH]1` (stereo unspecified) showed an IC50 in data set [2] (Stomach) of 800 nM. For the same molecule, the inhibition in vivo at 1 mg/kg in [4] came to 45%. Moreover, in data set [5], the inhibition in vivo at 0.3 mg/kg was 13%. Further, the inhibition in vivo at 0.5 mg/kg in data set [3] came to 35%.

In the case of `[O-][S+](Cc1cc(OCc2ccc(F)cc2)ccn1)c1nc2cscc2[nH]1` (stereo unspecified), the IC50 in data set [2] and in [6] was 500 nM each time. Further, in data set [9], the inhibition in vivo at 0.3 mg/kg was 80%. The inhibition in vivo at 0.5 mg/kg in data set [3] was found to be 85%.

Take `COc1ccnc(C[S+]([O-])c2nc3cscc3[nH]2)c1Cl` (stereo unspecified): the IC50 in data set [2] (Stomach) stood at 1000 nM. In addition, the pKa in [7] was determined as 3.55. In data set [8], this molecule displayed an ED50 of 0.1 mg/kg. In data set [4], the inhibition in vivo at 1 mg/kg worked out at 36%. For the same molecule, the inhibition in vivo at 0.3 mg/kg in data set [5] amounted to 82%. In addition, in data set [3], the inhibition in vivo at 0.5 mg/kg stood at 71%.
